Earlier results on four molecules are cited in article PMC8426237, “A first-in-human phase I study of TAS0728, an oral covalent binding inhibitor of HER2, in patients with advanced solid tumors with HER2 or HER3 aberrations” (Investigational New Drugs, 2021).

Where two headings read alike, the source gives them in different places.

For the data set the following is noted: cited from earlier work; for Diarrhea in patients: approved oral HER2-inhibitory compounds; for Diarrhea toxicity grade: HER2-positive breast cancer.

As for `Cc1cc(Nc2ncnc3ccc(NC4=NC(C)(C)CO4)cc23)ccc1Oc1ccn2ncnc2c1` [tucatinib], the Diarrhea in patients result is given as “associated with severe diarrhea”.
In the case of `CN(C)C/C=C/C(=O)Nc1cc2c(Nc3ccc(F)c(Cl)c3)ncnc2cc1O[C@H]1CCOC1` [afatinib], the Diarrhea in patients entry is reported as “associated with severe diarrhea”. The Diarrhea toxicity grade result (LUX-BREAST-1/−3 studies) is given as “Grade 3 or 4”.
In the case of `CCOc1cc2ncc(C#N)c(Nc3ccc(OCc4ccccn4)c(Cl)c3)c2cc1NC(=O)/C=C/CN(C)C` [neratinib], the Diarrhea in patients result is “associated with severe diarrhea” and the “Response of patients with tumors harboring HER2 G778_P780dup” value is on record as “respond to treatment”. Also, the Diarrhea toxicity grade entry (ExteNET trial) is reported as “Grade 3 or 4”.
Take `CS(=O)(=O)CCNCc1ccc(-c2ccc3ncnc(Nc4ccc(OCc5cccc(F)c5)c(Cl)c4)c3c2)o1` [lapatinib]: the Diarrhea in patients entry is given as “associated with severe diarrhea”.
